Patent publication US20240368157A1, “FORMS AND COMPOSITIONS OF A JAK2 INHIBITOR” (Ajax Therapeutics, Inc., priority 2023, published 2024)

Assay: Caco2 Permeability Assay
Type: in vitro ADME
Settings: human, Caco-2, pH 7.4; for Papp A→B at 2 h, 5 μM: apical to basolateral; for efflux ratio at 2 h, 5 μM: read-out: Efflux Ratio (ER)
Description: Preparation of Caco-2 Cells: 50 μL and 25 mL of cell culture medium are added to each well of a Transwell® insert and reservoir, respectively. Then, the HTS Transwell® plates are incubated at 37° C., 5% CO2 for 1 hour before cell seeding. Caco-2 cell cells are diluted to 6.86×10^5 cells/mL with culture medium, and 50 μL of cell suspension are dispensed into the filter well of the 96-well HTS Transwell® plate. Cells are cultivated for 14-18 days in a cell culture incubator at 37° C., 5% CO2, 95% relative humidity. Cell culture medium is replaced every other day, beginning no later than 24 hours after initial plating.
Preparation of Stock Solutions: 10 mM stock solutions of test compounds arc prepared in DMSO. The stock solutions of positive controls are prepared in DMSO at the concentration of 10 mM. Digoxin and propranolol are used as control compounds in this assay.
Assessment of Cell Monolayer Integrity: Medium is removed from the reservoir and each Transwell® insert and is replaced with prewarmed fresh culture medium. Transepithelial electrical resistance (TEER) across the monolayer is measured using Millicell Epithelial Volt-Ohm measuring system (Millipore, USA). The Plate is returned to the incubator once the measurement is done. The TEER value is calculated according to the following equation: TEER measurement (ohms)×Area of membrane (cm^2)=TEER value (ohm·cm^2). A TEER value greater than 230 ohm·cm^2 indicates a well-qualified Caco-2 monolayer.
Assay Procedure: The Caco-2 plate is removed from the incubator and washed twice with pre-warmed HBSS (10 mM HEPES, pH 7.4), and then incubated at 37° C. for 30 minutes. The stock solutions of control compounds are diluted in DMSO to get 1 mM solutions and then diluted with HBSS (10 mM HEPES, pH 7.4) to get 5 μM working solutions. The stock solutions of the test compounds are diluted in DMSO to get 1 mM solutions and then diluted with HBSS (10 mM HEPES and 4% BSA, pH 7.4) to get 5 μM working solutions. The final concentration of DMSO in the incubation system is 0.5%. To determine the rate of drug transport in the apical to basolateral direction. 75 μL of 5 μM working solutions of test compounds are added to the Transwell® insert (apical compartment) and the wells in the receiver plate (basolateral compartment) are filled with 235 μL of HBSS (10 mM HEPES and 4% BSA, pH 7.4). To determine the rate of drug transport in the basolateral to apical direction, 235 μL of 5 μM working solutions of test compounds are added to the receiver plate wells (basolateral compartment) and then the Transwell® inserts (apical compartment) are filled with 75 μL of HBSS (10 mM HEPES and 4% BSA, pH 7.4). […]

Row | SMILES | Papp A→B at 2 h, 5 μM [×10⁻⁶ cm/s] | efflux ratio at 2 h, 5 μM
1 | CN(C)C(=O)Nc1cc(Oc2cnc3nc(Nc4cc(C(F)(F)F)cn(C)c4=O)n(C)c3c2C#N)ccn1 [Compound 1, 3-(4-((7-cyano-1-methyl-2-((1-methyl-2-oxo-5-(trifluoromethyl)-1,2-dihydropyridin-3-yl)amino)-1H-imidazo[4,5-b]pyridin-6-yl)oxy)pyridin-2-yl)-1,1-dimethylurea] | 7 | 2 to 5
2 | CCN1CCN(Cc2ccc(Nc3nc4ccc(Oc5ccnc(NC(C)=O)c5)cc4n3C)cc2C(F)(F)F)CC1 [Compound R-1, reference compound] | 0.4 | 10 to 30
